Test results published in patent US6841577B2, “Pesticidal activity of plant essential oils and their constituents” (Ecosmart Technologies, Inc., priority 1999, dated 2005).

How the values were obtained:
[1] = tested on: octopamine receptor sites; experiment: 3H-OA binding to ventral nerve cord / synaptosomal membrane protein; set-up: species or system American cockroach (Periplaneta americana); settings: for classification with respect to octopamine receptor sites (OAR): based on the binding data of Tables 1-3; for dpm 3H-OA/500 μg protein: Table 2
Procedure: Different concentrations of unlabeled octopamine (OA) (20, 30, 40, 50, 60, 100 ng) were tested on the binding activity as a positive control. Test chemicals were dissolved in acetone before the assay. Different concentrations of the test chemicals were added directly to the protein preparation from ventral nerve cord. The same amount of solvent (1 μl 0.1%) were added to the control samples. All assays with test chemicals were run in the presence and absence of 50 ng OA. All chemicals were added to the protein extract 20 min prior the addition of radio labeled ^3H-OA(100,000 cpm/sample). After 30 min at 24° C. of the addition of ^3H-OA, the reaction was stopped by the addition of ice-cold Tris buffer, and the samples were filtered through GF/C membrane using water vacuum. After two washes each with 5 ml Tris buffer, the membrane was removed, air dried and the radioactivity was counted in 4 ml liquid scintillation solution. The specific binding was calculated as the difference between the values in the presence and absence of unlabeled OA. All data are calculated as the mean±standard deviation of 5 assays.
Additional tests were conducted on radio labeled octopamine using other purified naturally occurring materials as given in Tables 2 and 3.

American cockroach [2] = experiment: Lethal effect of injected test chemicals; assay type: in vivo
Procedure: Further studies were conducted to determine the LD 50 of purified naturally occurring plant essential oils and/or their constituents. […] Ten roaches per dose were used. Another group of ten roaches received the same volume of vehicle only (0.5 μl) and used as a control group. Mortality was recorded 24, 48, and 72 hours after exposure.

American cockroach [3] = experiment: Cross walk jar test on pre-treated surface; assay type: in vivo
Procedure: In the test, a known amount of the test material was dissolved in a known volume of acetone and applied to small jars and all inner bottom surfaces were covered. The bottom surface of each jar is approximately 250 cm^2. One hour after the acetone had completely evaporated, five American cockroaches were introduced to each jar. Control jars were treated exactly as above but with the known amount of acetone only.
The results of the “cross walk” jar tests are in Table 8 in which the “4-blend” was dispersed as an aerosol and a dust in the jar.
In this test, the acetone solution of the test material was placed in the jar and the roach inserted into the jar after the acetone had evaporated.
Mortality was measured 24 hours after exposure.
The “4-blend” and the individual constituents of the “4-blend” were tested using 10 cockroaches for each “cross walk” treatment. In addition, pyrethrins were tested separately and mixed with the various components.
A concentration of 100 mg/jar was used for each individual alone. In the co-treatment experiment without pyrethrins, 20 mg/jar for each chemical was used. In the cotreatment experiment with pyrethrins, 20 mg/jar for the naturally occurring plant material was used. Pyrethrins was used at 2 mg/jar. […] It was noted above that the mortality is dependent upon concentration. […] Some synergism is found between pyrethrins and either α-terpineol or benzyl alcohol.

[4] = tested on: heart of American cockroach (octopamine receptors); experiment: Heartbeat after application to thoracic segment; assay type: in vivo; settings: mean ±SD of three roaches; for Heart beat/30 sec 30 min after treatment: 300 μg applied to thoracic segment; for Heart beat/30 sec before treatment: baseline of the same roaches
Procedure: To further establish the effect of the purified naturally occurring plant essential oils and/or their constituents on the American cockroach, a 300 μg amount of the chemical was applied to the thoracic segment of an intact and alive American cockroach. The heart beats/30 seconds was measured. The heart of the cockroach is known to have a high concentration of octopamine receptors and the heart beat is considered an important measurement to indicate the effect of the applied chemicals to the octopamine receptors.

[5] = 500 ng/ml, Table 3, solvent control 1385 ± 101
[6] = 1000 ng/ml, Table 3, solvent control 1915 ± 110
[7] = 500 μg/roach injected into thoracic and abdominal segments, 24 hr., dead/10
[8] = 500 μg/roach injected, 48 hr., dead/10
[9] = 500 μg/roach injected, 72 hr., dead/10, control 1/10
[10] = 500 ng/ml, solvent control 1101 ± 120
[11] = 1000 ng/ml, solvent control 930 ± 89
[12] = 300 ng test chemical, Table 1, solvent control 1280 ± 259
[13] = 500 ng test chemical, Table 1, solvent control 1280 ± 259
[14] = 700 ng test chemical, Table 1, solvent control 1280 ± 259
[15] = 1000 ng test chemical, Table 1, solvent control 1280 ± 259
[16] = 1500 ng test chemical, Table 1, solvent control 1280 ± 259

C=C(C)[C@H]1CC=C(C)CC1 [R-limonene]
cpm 3H-OA/500 μg protein [1, 5]: 1436 ± 133 cpm 3H-OA/500 μg protein | classification with respect to octopamine receptor sites (OAR) [1]: Non-OAR Specific Toxicants

C/C=C/c1ccc(OC)cc1 [Trans-Anethole]
agonist/antagonist note to 3H-OA binding ([1]; 500 ng/ml): antagonist | cpm 3H-OA/500 μg protein [1, 5]: 1104 ± 110 cpm 3H-OA/500 μg protein | cpm 3H-OA/500 μg protein [1, 6]: 970 ± 87 cpm 3H-OA/500 μg protein | classification with respect to octopamine receptor sites (OAR) [1]: moderate OAR antagonists

COc1cc(C=O)ccc1O [Vanillin]
agonist/antagonist note to 3H-OA binding ([1]; 500 ng/ml): antagonist | cpm 3H-OA/500 μg protein [1, 5]: 1030 ± 83 cpm 3H-OA/500 μg protein | cpm 3H-OA/500 μg protein [1, 6]: 700 ± 55 cpm 3H-OA/500 μg protein

CC(C)=CCCC(C)CC=O (centres unmarked) [citronellal]
Mortality (American cockroach [2]; [7]): 0/10 | Mortality (American cockroach [2]; [8]): 0/10 | Mortality (American cockroach [2]; [9]): 0/10

C=C(C)[C@H]1CC=C(C)CC1 [d-limonene]
Mortality (American cockroach [2]; [7]): 0/10 | Mortality (American cockroach [2]; [8]): 0/10 | Mortality (American cockroach [2]; [9]): 0/10 | activity/binding at octopamine receptor sites, in words [1]: no activity against octopamine receptor sites | dpm 3H-OA/500 μg protein [1, 10]: 1194 ± 101 dpm 3H-OA/500 μg protein | dpm 3H-OA/500 μg protein [1, 11]: 866 ± 71 dpm 3H-OA/500 μg protein

Cc1ccc(C(C)C)cc1 [p-cymene]
agonist/antagonist note to 3H-OA binding ([1]; 500 ng/ml): antagonist | cpm 3H-OA/500 μg protein [1, 5]: 1142 ± 074 cpm 3H-OA/500 μg protein | cpm 3H-OA/500 μg protein [1, 6]: 804 ± 057 cpm 3H-OA/500 μg protein | classification with respect to octopamine receptor sites (OAR) [1]: moderate OAR antagonists

OCCc1ccccc1 [phenethyl alcohol]
mortality at 100 mg (American cockroach [3]; Periplaneta americana, 24 h): 0% | mortality at 100 mg (American cockroach [3]; Periplaneta americana, 48 h): 0% | mortality at 100 mg (American cockroach [3]; Periplaneta americana, 72 h): 0% | Mortality (American cockroach [2]; [7]): 0/10 | Mortality (American cockroach [2]; [8]): 0/10 | Mortality (American cockroach [2]; [9]): 0/10 | Heart beat/30 sec 30 min after treatment [4]: 29 ± 2 beat/30 sec | Heart beat/30 sec before treatment [4]: 47 ± 2 beat/30 sec

CC(C)=C1CC[C@@H](C)CC1=O [pulegone]
mortality at 10 mg (American cockroach [3]; Periplaneta americana, 24 h): 100% | pesticidal activity against cockroaches, in words (American cockroach [3]; in vivo): high pesticidal activity | Mortality (American cockroach [2]; 50 μg injected through the end of the abdominal segment, 48 hr. after treatment): 20% | Mortality 24 hr after treatment (American cockroach [2]; 300 μg, dead/10): 3/10 | Mortality 24 hr after treatment (American cockroach [2]; 400 μg, dead/10): 5/10 | Mortality (American cockroach [2]; [7]): 6/10 | Mortality (American cockroach [2]; [8]): 6/10 | Mortality (American cockroach [2]; [9]): 7/10 | Mortality 24 hr after treatment (American cockroach [2]; 500 μg, dead/10): 5/10 | Mortality 24 hr after treatment (American cockroach [2]; 600 μg, dead/10): 8/10 | Mortality 24 hr after treatment (American cockroach [2]; 700 μg, dead/10): 10/10 | cpm 3H-OA/500 μg protein [1, 12]: 936 ± 33 cpm 3H-OA/500 μg protein | cpm 3H-OA/500 μg protein [1, 13]: 778 ± 22 cpm 3H-OA/500 μg protein | cpm 3H-OA/500 μg protein [1, 14]: 662 ± 51 cpm 3H-OA/500 μg protein | cpm 3H-OA/500 μg protein [1, 15]: 435 ± 22 cpm 3H-OA/500 μg protein | cpm 3H-OA/500 μg protein [1, 16]: 217 ± 18 cpm 3H-OA/500 μg protein | classification with respect to octopamine receptor sites (OAR) [1]: high OAR antagonists

CC1=CC[C@H](C(C)C)C=C1 [α-phellandrene]
agonist/antagonist note to 3H-OA binding ([1]; 500 ng/ml): agonist | cpm 3H-OA/500 μg protein [1, 5]: 2353 ± 343 cpm 3H-OA/500 μg protein | classification with respect to octopamine receptor sites (OAR) [1]: OAR Agonists

CC1=CCC(C(C)(C)O)CC1 (stereo not drawn) [α-terpineol]
mortality at 100 mg (American cockroach [3]; Periplaneta americana, 24 h): 20% | mortality at 100 mg (American cockroach [3]; Periplaneta americana, 48 h): 30% | mortality at 100 mg (American cockroach [3]; Periplaneta americana, 72 h): 60% | cpm 3H-OA/500 μg protein [1, 12]: 1213 ± 110 cpm 3H-OA/500 μg protein | cpm 3H-OA/500 μg protein [1, 13]: 1031 ± 24 cpm 3H-OA/500 μg protein | cpm 3H-OA/500 μg protein [1, 14]: 910 ± 88 cpm 3H-OA/500 μg protein | cpm 3H-OA/500 μg protein [1, 15]: 700 ± 88 cpm 3H-OA/500 μg protein | cpm 3H-OA/500 μg protein [1, 16]: 565 ± 47 cpm 3H-OA/500 μg protein | classification with respect to octopamine receptor sites (OAR) [1]: moderate OAR antagonists | Heart beat/30 sec 30 min after treatment [4]: 32 ± 2 beat/30 sec | Heart beat/30 sec before treatment [4]: 58 ± 4 beat/30 sec

Citronellal 80
agonist/antagonist note to 3H-OA binding ([1]; 500 ng/ml): antagonist | dpm 3H-OA/500 μg protein [1, 10]: 725 ± 95 dpm 3H-OA/500 μg protein | dpm 3H-OA/500 μg protein [1, 11]: 526 ± 33 dpm 3H-OA/500 μg protein | classification with respect to octopamine receptor sites (OAR) [1]: moderate OAR antagonists
